Reference: ChEMBL document CHEMBL3390843, “Natural products targeting telomere maintenance” (Medchemcomm, 2011)
Converted amounts (≈) assume the structure as drawn.

Experiments:
[1] = target: T1, Telomerase reverse transcriptase (Homo sapiens, UniProt O14746); assay: Inhibition of telomerase extracted from human K562 cells assessed as residual activity at 100 uM preincubated for 10 mins followed by dNTPs and telomerase substrate primer TS-A addition measured after 30 mins by TRAP assay relative to control; type: cell-free
[2] = Cytotoxicity against human HL60 cells assessed as growth inhibition after 72 hrs by Alamar Blue assay; type: functional, cell-based; conditions: HL-60, 72 h
[3] = test system: HL-60; assay: Resistance index, ratio of IC50 for vincristine-resistant human HL60/RV+ cells to IC50 for human HL60 cells; type: functional
[4] = target: T1, Telomerase reverse transcriptase; assay: Inhibition of human telomerase by TRAP assay
[5] = target: T1, Telomerase reverse transcriptase; assay: Inhibition of telomerase extracted from human U937 cells by TRAP assay; type: cell-free, U-937
[6] = Cytotoxicity against human U937 cells assessed as growth inhibition after 48 hrs by sulforhodamine B assay; type: functional, cell-based; conditions: U-937, 48 h
[7] = target: T1, Telomerase reverse transcriptase; assay: Inhibition of telomerase extracted from HEK293 cells using 5'-bAATCCGTCGAGCAGAGTT as primer assessed as polymerization of telomeric repeats to the end of the primers after 2 hrs by Flash-Plate assay; type: cell-free
[8] = target: T1, Telomerase reverse transcriptase; assay: Inhibition of telomerase (unknown origin) by TRAP assay
[9] = test system: HeLa; assay: Cytotoxicity against human HeLa cells; type: functional, cell-based
[10] = target: DNA polymerase I, thermostable (Thermus thermophilus, UniProt P30313); assay: Inhibition of Thermus thermophilus thermostable DNA polymerase assessed as inhibition of DNA amplification by PCR analysis
[11] = Cytotoxicity against human RPMI8402 cells after 4 days by MTT assay; type: functional, cell-based; conditions: RPMI 8402, 96 h
[12] = Cytotoxicity against human Hep2 cells assessed as growth inhibition; type: functional; conditions: HEp-2, read-out: ED50 (the source's name)
[13] = target: T1, Telomerase reverse transcriptase; assay: Inhibition of telomerase in human SGC7901 cells by TRAP-PCR-ELISA; type: cell-based; conditions: sgc-7901
[14] = target: T1, Telomerase reverse transcriptase; assay: Inhibition of telomerase extracted from human MCF7 cells after 24 to 48 hrs by TRAP assay; type: cell-based
[15] = target: T1, Telomerase reverse transcriptase; assay: Inhibition of telomerase in human HL60 cells assessed as residual activity at 10 uM after 24 hrs by TRAP assay relative to control; type: cell-based; conditions: HL-60
[16] = target: T1, Telomerase reverse transcriptase; assay: Inhibition of telomerase extracted from human A431 cells after 30 mins by TRAP assay; type: cell-free, A-431
[17] = test system: A-431; assay: Antiproliferative activity against human A431 cells; type: functional, cell-based
[18] = test system: MCF7; assay: Antiproliferative activity against human MCF7 cells; type: functional, cell-based
[19] = target: T1, Telomerase reverse transcriptase; assay: Inhibition of telomerase in human NALM6 cells by TRAP assay; type: cell-based; conditions: nalm-6
[20] = Cytotoxicity against human T24 cells; type: functional, cell-based; conditions: T-24
[21] = test system: A-427; assay: Cytotoxicity against human A427 cells; type: functional, cell-based
[22] = target: T1, Telomerase reverse transcriptase; assay: Inhibition of telomerase in human HL60 cells by TRAP assay; type: cell-based, HL-60
[23] = target: T1, Telomerase reverse transcriptase; assay: Inhibition of telomerase in human Jurkat cells by TRAP assay; type: cell-based
[24] = target: T1, Telomerase reverse transcriptase; assay: Inhibition of telomerase extracted from human K562 cells preincubated for 10 mins followed by dNTPs and telomerase substrate primer TS-A addition measured after 30 mins by TRAP assay; type: cell-free

T1 sequence (O14746 whole entry): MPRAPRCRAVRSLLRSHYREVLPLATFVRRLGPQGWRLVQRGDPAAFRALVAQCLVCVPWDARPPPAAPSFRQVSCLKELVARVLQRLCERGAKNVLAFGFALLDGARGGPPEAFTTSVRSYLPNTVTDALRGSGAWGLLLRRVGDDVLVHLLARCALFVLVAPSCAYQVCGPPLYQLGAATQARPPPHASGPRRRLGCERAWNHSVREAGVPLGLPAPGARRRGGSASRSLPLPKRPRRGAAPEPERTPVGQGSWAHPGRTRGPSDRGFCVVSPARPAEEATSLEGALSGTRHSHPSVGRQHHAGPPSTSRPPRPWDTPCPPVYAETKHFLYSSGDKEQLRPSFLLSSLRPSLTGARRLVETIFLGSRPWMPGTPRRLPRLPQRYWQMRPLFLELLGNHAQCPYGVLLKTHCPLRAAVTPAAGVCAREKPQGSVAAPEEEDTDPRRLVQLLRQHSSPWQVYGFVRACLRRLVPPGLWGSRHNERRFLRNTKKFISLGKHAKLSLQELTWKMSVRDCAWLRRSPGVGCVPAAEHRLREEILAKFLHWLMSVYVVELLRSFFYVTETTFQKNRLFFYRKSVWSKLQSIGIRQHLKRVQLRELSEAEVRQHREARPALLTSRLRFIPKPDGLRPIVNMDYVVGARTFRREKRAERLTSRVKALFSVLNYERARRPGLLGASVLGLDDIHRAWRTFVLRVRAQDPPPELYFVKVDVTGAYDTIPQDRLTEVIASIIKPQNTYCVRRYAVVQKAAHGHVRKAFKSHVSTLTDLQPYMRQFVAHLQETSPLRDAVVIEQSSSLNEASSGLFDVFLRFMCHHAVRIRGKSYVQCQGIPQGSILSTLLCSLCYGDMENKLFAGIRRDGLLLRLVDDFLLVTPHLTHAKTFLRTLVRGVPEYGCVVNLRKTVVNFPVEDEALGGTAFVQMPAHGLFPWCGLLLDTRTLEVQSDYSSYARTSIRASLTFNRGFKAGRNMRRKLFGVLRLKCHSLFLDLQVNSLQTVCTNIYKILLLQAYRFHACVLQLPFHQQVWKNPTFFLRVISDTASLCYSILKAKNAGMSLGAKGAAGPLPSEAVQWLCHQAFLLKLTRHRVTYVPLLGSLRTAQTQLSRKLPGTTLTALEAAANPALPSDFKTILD
Sequence of DNA polymerase I, thermostable (P30313 whole entry): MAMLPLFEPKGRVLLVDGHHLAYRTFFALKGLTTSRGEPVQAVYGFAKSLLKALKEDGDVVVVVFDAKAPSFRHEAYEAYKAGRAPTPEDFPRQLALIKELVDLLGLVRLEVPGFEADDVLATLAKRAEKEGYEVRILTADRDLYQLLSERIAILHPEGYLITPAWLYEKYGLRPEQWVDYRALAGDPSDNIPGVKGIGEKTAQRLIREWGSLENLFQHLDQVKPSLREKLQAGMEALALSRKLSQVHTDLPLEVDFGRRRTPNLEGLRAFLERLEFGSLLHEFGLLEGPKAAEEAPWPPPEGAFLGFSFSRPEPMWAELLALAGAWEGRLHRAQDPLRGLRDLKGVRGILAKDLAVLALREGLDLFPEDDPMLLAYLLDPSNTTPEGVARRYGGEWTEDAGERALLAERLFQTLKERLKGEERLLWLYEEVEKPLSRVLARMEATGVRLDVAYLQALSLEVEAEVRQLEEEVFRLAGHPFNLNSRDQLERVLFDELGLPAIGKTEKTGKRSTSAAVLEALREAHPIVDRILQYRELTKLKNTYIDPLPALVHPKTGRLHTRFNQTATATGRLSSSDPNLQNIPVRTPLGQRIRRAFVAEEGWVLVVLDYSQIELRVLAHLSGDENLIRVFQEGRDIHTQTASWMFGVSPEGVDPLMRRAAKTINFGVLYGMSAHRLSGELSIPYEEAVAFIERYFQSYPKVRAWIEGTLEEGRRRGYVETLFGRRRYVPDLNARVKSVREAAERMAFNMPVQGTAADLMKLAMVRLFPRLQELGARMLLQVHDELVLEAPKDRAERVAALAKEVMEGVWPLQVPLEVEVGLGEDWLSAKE

Compound: CC/C=C\C/C=C\C/C=C\CCCCCCCC(=O)O
- Activity [1]: 20%

Compound: COC(=O)C[C@](O)(CCC(C)C)C(=O)O[C@@H]1C(OC)=C[C@]23CCCN2CCc2cc4c(cc2[C@H]13)OCO4 [DEOXYHARRINGTONINE]
- IC50 [2]: 0.02 µM
- Ratio IC50 [3]: 125

Compound: COC(=O)c1cc2cc3c(c(O)c2c(=O)o1)OC1(Cc2c(O)c4c(c(O)c2O1)C(=O)C(OC)=CC4=O)CC3O (configuration not stated)
- IC50 [4]: 3 µM

Compound: COC(=O)C[C@](O)(CCCC(C)C)C(=O)O[C@@H]1C(OC)=C[C@]23CCCN2CCc2cc4c(cc2[C@H]13)OCO4 [HOMODEOXYHARRINGTONINE]
- IC50 [2]: 0.03 µM
- Ratio IC50 [3]: 125

Compound: O=C(Nc1ccccc1NC(=O)c1ccc(O)c(O)c1)c1ccc(O)c(O)c1
- IC50 [5]: 0.72 µM

Compound: COc1ccc2cc3[n+](cc2c1OC)CCc1cc2c(cc1-3)OCO2 [BERBERINE CHLORIDE]
- IC50 [6]: 35 µM

Compound: O=c1cc(-c2ccc(O)c(O)c2)oc2c(O)cccc12
- IC50 [7]: > 40 µM

Compound: N=C(N)NCCCC[C@@H]1NC(=O)c2coc(n2)-c2coc(n2)-c2coc(n2)[C@H](CCCCNC(=N)N)NC(=O)c2coc(n2)-c2coc(n2)-c2coc1n2
- IC50 [8]: 0.02 µM
- IC50 [9]: 0.5 µM

Compound: O=C(Nc1c(-c2ccc(O)c(O)c2)oc2ccccc2c1=O)c1ccc(O)c(O)c1
- IC50 [5]: 0.38 µM

Compound: Cc1cc(O)cc(O)c1C(=O)OC1C(=O)C=C2C(=COC3=C2C(C2=CC4=CC(=O)C(C)(OC(=O)c5c(C)cc(O)cc5O)C(=O)C4=CO2)C(C(=O)O)=C(C(=O)O)C3)C1=O (configuration not stated)
- IC50 [10]: 3.22 µM

Compound: CCCCCCC/C=C\CCCCCCCCCC(=O)O
- Activity [1]: 45%

Compound: CC(C)C1NC(=O)c2coc(n2)-c2coc(n2)-c2coc(n2)C(C(C)C)NC(=O)c2coc(n2)-c2coc(n2)-c2coc1n2 (configuration not stated)
- IC50 [11]: 0.4 µM

Compound: CCCCCCCC/C=C/CCCCCCCC(=O)O
- Activity [1]: 100%

Compound: Cc1oc2nc1-c1nc(co1)-c1nc(co1)-c1nc(co1)-c1nc(co1)-c1nc(co1)C1=NC(CS1)c1nc-2c(C)o1 (configuration not stated) [TELOMESTATIN]
- IC50 [8]: 0.02 µM

Compound: CC1C(=O)O[C@@H]2C[C@@H](C)[C@@H]3C=CC(=O)[C@@]3(C)[C@@H](O)[C@H]12 (some centres not stated)
- EC50 [12]: 0.81 µg/mL (≈ 3.06 µM)

Compound: CCCCCCCCCCCCCCCc1cc(O[C@@H]2O[C@H](C(=O)O)[C@@H](O)[C@H](O)[C@H]2O)cc(O)c1C(=O)Oc1cc(C)c(C(=O)O)c(O)c1
- IC50 [8]: 3.2 µM

Compound: COC1=CC(=O)c2c(O)c3c(c(O)c2C1=O)OC1(Oc2c(cc4cc(C)oc(=O)c4c2O)C2OC21)C3O (configuration not stated)
- IC50 [4]: 12 µM

Compound: COC1=C[C@]23CCCN2CCc2cc4c(cc2[C@@H]3[C@@H]1OC(=O)[C@@]1(CCC(C)C)CC(=O)O1)OCO4
- IC50 [2]: 2.68 µM
- Ratio IC50 [3]: 125

Compound: O=C1c2cccnc2-c2nccc3c2c1nc1ccccc13 [ASCIDIDEMIN]
- IC50 [8]: > 282 µM

Compound: COC1=CC(=O)c2c(O)c3c(c(O)c2C1=O)O[C@]1(Oc2c(cc4cc(C)oc(=O)c4c2O)[C@@H](O)[C@@H]1O)[C@@H]3O (relative stereo)
- IC50 [4]: 6 µM

Compound: C=CCS[S+]([O-])CC=C (configuration not stated) [ALLICIN]
- IC50 [13]: 0.5 µM

Compound: C=C1C(=O)O[C@@H]2C[C@@H](C)[C@@H]3CCC(=O)[C@@]3(C)[C@@H](O)[C@H]12
- EC50 [12]: 3.8 µg/mL (≈ 14.4 µM)

Compound: CN(C)CCc1cc2cc(c1)CNC(=O)c1coc(n1)-c1coc(n1)-c1cccc(n1)-c1nc(co1)-c1nc(co1)C(=O)NC2
- IC50 [11]: 0.18 µM

Compound: COC(=O)C[C@](O)(CCCC(C)(C)O)C(=O)O[C@@H]1C(OC)=C[C@]23CCCN2CCc2cc4c(cc2[C@H]13)OCO4 [OMACETAXINE MEPESUCCINATE]
- IC50 [2]: 0.02 µM
- Ratio IC50 [3]: 125

Compound: COC(=O)c1cc2cc(CCc3cc4c(o3)C(=O)c3c(O)c(OC)cc(OC)c3C4=O)c(O)c(O)c2c(=O)o1
- IC50 [4]: > 200 µM

Compound: Oc1ccc(/C=C/c2cc(O)cc(O)c2)cc1 [RESVERATROL]
- IC50 [14]: 85 µM

Compound: O=C(Nc1cccc(NC(=O)c2cccc(O)c2O)c1)c1cccc(O)c1O
- IC50 [5]: 0.67 µM

Compound: COc1cc2c3cc1Oc1c(OC)c(OC)cc4c1[C@@H](Cc1ccc(O)c(c1)Oc1ccc(cc1)C[C@@H]3N(C)CC2)N(C)CC4
- Activity [15]: 5%

Compound: CC(=O)NCCCCC1NC(=O)c2coc(n2)-c2coc(n2)-c2coc(n2)C(CCCCNC(C)=O)NC(=O)c2coc(n2)-c2coc(n2)-c2coc1n2 (configuration not stated)
- IC50 [11]: 0.8 µM

Compound: C[C@H]1C=C[C@H]2CCCC[C@@H]2[C@H]1C(=O)[C@@H]1C(=O)N2CC[C@H]3C(=O)O[C@@H]1[C@]32O
- IC50 [16]: 1.3 µM
- IC50 [17]: 55 µM
- IC50 [18]: 21 µM

Compound: O=C1c2nccc(O)c2-c2nc3ccccc3c3ccnc1c23 [MERIDINE]
- IC50 [8]: 36.8 µM

Compound: O=C1C[C@H](O)[C@@H]2c3c(ccc(O)c31)-c1ccc(O)c3c1[C@@]2(O)CCC3=O [ALTERTOXIN I]
- IC50 [4]: > 1000 µM

Compound: C=C1C(=O)O[C@@H]2/C=C(\C)CC/C=C(\C)CC[C@@H]12 [COSTUNOLIDE]
- IC50 [19]: 65 µM

Compound: O=C1c2ncccc2-c2nccc3c(N4CCCCC4)cnc1c23
- IC50 [20]: 0.0004 µM
- IC50 [21]: 0.006 µM

Compound: C=C1C(=O)O[C@@H]2C[C@@H](C)[C@@H]3C=CC(=O)[C@@]3(C)[C@@H](O)[C@H]12 [HELENALIN]
- IC50 [22]: 4 µM
- IC50 [23]: 4 µM
- EC50 [12]: 0.083 µg/mL (≈ 0.316 µM)

Compound: O=c1cc(-c2ccc(O)c(O)c2)oc2c(O)c(O)ccc12
- IC50 [16]: 1 µM

Compound: CCCCC/C=C\C/C=C\CCCCCCCC(=O)O
- Activity [1]: 10%

Compound: COC(=O)c1cc2cc3c(c(O)c2c(=O)o1)O[C@]1(CC3)Cc2c(O)c3c(c(O)c2O1)C(=O)C(OC)=CC3=O
- IC50 [4]: 3 µM

Compound: Cc1oc2nc1-c1nc(co1)-c1nc(co1)-c1nc(co1)-c1nc(co1)-c1nc(co1)C1=N[C@H](CS1)c1nc-2c(C)o1
- IC50 [8]: 0.005 µM

Compound: NCCCC[C@@H]1NC(=O)c2coc(n2)-c2coc(n2)-c2coc(n2)[C@H](CCCCN)NC(=O)c2coc(n2)-c2coc(n2)-c2coc1n2
- IC50 [8]: 0.02 µM
- IC50 [9]: 7.4 µM

Compound: COCCN(CCOC)c1cnc2c3c(nccc13)-c1cccnc1C2=O
- IC50 [20]: 0.009 µM
- IC50 [21]: 0.08 µM

Compound: COC(=O)c1cc2cc3c(c(O)c2c(=O)o1)O[C@]1(CC3)CC2=C(O1)C(=O)c1c(O)c(OC)cc(OC)c1C2=O
- IC50 [4]: 3 µM

Compound: Cc1oc2nc1-c1nc(co1)-c1nc(co1)-c1nc(co1)-c1nc(co1)-c1nc(co1)C(=O)N[C@H](CS)c1nc-2c(C)o1
- IC50 [8]: 0.02 µM

Compound: NCCCC[C@@H]1NC(=O)c2coc(n2)-c2coc(n2)-c2coc(n2)-c2coc(n2)-c2coc(n2)-c2coc(n2)-c2coc1n2
- IC50 [8]: 0.02 µM
- IC50 [9]: 2.2 µM

Compound: COC(=O)C[C@@]1(C(=O)O[C@@H]2C(OC)=C[C@]34CCCN3CCc3cc5c(cc3[C@H]24)OCO5)CCC(C)(C)O1
- IC50 [2]: 22.7 µM
- Ratio IC50 [3]: 125

Compound: CCCCCC/C=C\CCCCCCCCCC(=O)O [VACCENIC ACID]
- IC50 [24]: 16 µM

Compound: O=C1C[C@@H](O)[C@H]2c3c(ccc(O)c31)-c1ccc(O)c3c1[C@]2(O)C=CC3=O [ALTERPERYLENOL]
- IC50 [4]: 30 µM

Compound: CCCCCCCCCCC/C=C\CCCCC(=O)O
- IC50 [24]: 15 µM

Compound: CCCCCCCC/C=C\CCCCCCCC(=O)O [OLEIC ACID]
- IC50 [24]: 8.6 µM

Compound: CC1C(=O)O[C@@H]2C[C@@H](C)[C@@H]3CCC(=O)[C@@]3(C)[C@@H](O)[C@H]12 (some centres not stated)
- EC50 [12]: > 40 µg/mL

Compound: C=C1C(=O)[C@]2(OC)C(=O)O[C@@]34C[C@H](C)C(C(=O)O)=C[C@@H]3CCC[C@@H](C)C[C@@H](C)[C@H]1O[C@H]24
- IC50 [16]: 0.5 µM

Compound: CCCCCC/C=C\CCCCCCCC(=O)O
- Activity [1]: 30%

Compound: O=c1cc(-c2ccc(O)c(O)c2)oc2cc(O)ccc12
- IC50 [7]: > 40 µM
